Assay results: patent US9708314B2, “Heterocyclic amide compound” (NISSAN CHEMICAL INDUSTRIES, LTD., priority 2013, dated 2017)

Columns and labels:
Type in all cases: in vivo
Alopecurus myosuroides = experiment: Test Example 4: herbicidal effect by application to foliage (diluvial soil, plastic box); conditions: Application herbicide amount 320 g/ha
Source text: (§1) 5 Herbicidal ratio of 90% or more (almost completely withered) 4 Herbicidal ratio of 70% or more and less than 90% 3 Herbicidal ratio of 40% or more and less than 70% 2 Herbicidal ratio of 20% or more and less than 40% 1 Herbicidal ratio of 5% or more and less than 20% 0 Herbicidal ratio of 5% or less (almost no effect) [Test Example 4] Herbicidal Effect Test by Application to Foliage Sterilized diluvial soil was placed in a plastic box having a length of 21 cm, a width of 13 cm, and a depth of 7 cm. Each of the seeds of Digitaria ciliaris, Setaria viridis, Echinochloa crus-galli var. crus-galli, Avena fatua, Alopecurus myosuroides, Lolium multiflorum Lam., Apera spica-venti., Abutilon theophrasti, Amaranthus retroflexus, Chenopodium album, Stellaria media, Galium spurium, Veronica persica, Zea mays, Glycine max, Oryza sativa, Triticum aestivum, Beta vulgaris ssp. vulgaris, and Brassica campestris L. was sowed in a spot-like manner and was covered with the soil of about 1.5 cm thick. Thereafter, the plants were grown in the greenhouse of 25° C. to 30° C. After the plants were grown for 14 days, the emulsion agent containing the compound of the present invention prepared in accordance with Formulation Example 2 was diluted with water so as to be a predetermined herbicide amount and the diluted compound was uniformly applied to a stem and leaf part with a small-size spray. Three weeks after the herbicide application, effects on each plant were investigated in accordance with the criteria of Test Example 1. A: Echinochloa oryzicola Vasing., B: Scirpus juncoides, C: Monochoria vaginalis, D: Leptochloa chinensis, E: Cyperus difformis, F: Digitaria ciliaris, G: Setaria viridis, H: Echinochloa crus-galli var. crus-galli, I: Avena fatua, J: Alopecurus myosuroides, K: Lolium multiflorum Lam., L: Apera spica-venti., M: Abutilon theophrasti, N: Amaranthus retroflexus, O: Chenopodium album, P: Stellaria media, Q: Galium spurium, R: Veronica persica, a: transplanted Oryza sativa, b: directly sowed Oryza sativa, c: Zea mays, d: Glycine max, e: Triticum aestivum, f: Beta vulgaris ssp. vulgaris, and g: Brassica campestris L. The application herbicide amount (g/ha) means an amount that a concentration is adjusted so that, when an application amount is converted into per hectare (1 ha), the herbicide is applied by the number of grams (g) of the described value.

Setaria viridis = experiment: as above; conditions: Application herbicide amount 320 g/ha
Source text: as §1

Galium spurium = experiment: as above; conditions: Application herbicide amount 320 g/ha
Source text: as §1

Lolium multiflorum Lam. = experiment: as above; conditions: Application herbicide amount 320 g/ha
Source text: as §1

Abutilon theophrasti = experiment: as above; conditions: Application herbicide amount 320 g/ha
Source text: as §1

Chenopodium album = experiment: as above; conditions: Application herbicide amount 320 g/ha
Source text: as §1

Avena fatua = experiment: as above; conditions: Application herbicide amount 320 g/ha
Source text: as §1

[1] = tested on: Echinochloa crus-galli var. crus-galli; experiment: as above; conditions: Application herbicide amount 320 g/ha
Source text: as §1

Apera spica-venti. = experiment: as above; conditions: Application herbicide amount 320 g/ha
Source text: as §1

Digitaria ciliaris = experiment: as above; conditions: Application herbicide amount 320 g/ha
Source text: as §1

Veronica persica = experiment: as above; conditions: Application herbicide amount 320 g/ha
Source text: as §1

Leptochloa chinensis = experiment: Test Example 3: herbicidal effect by application to foliage (Wagner pot, water depth 0.1-0.5 cm); conditions: Nineteenth Table; application to foliage; application herbicide amount 320 g/ha
Source text: (§2) 5 Herbicidal ratio of 90% or more (almost completely withered) 4 Herbicidal ratio of 70% or more and less than 90% 3 Herbicidal ratio of 40% or more and less than 70% 2 Herbicidal ratio of 20% or more and less than 40% 1 Herbicidal ratio of 5% or more and less than 20% 0 Herbicidal ratio of 5% or less (almost no effect) [Test Example 3] Herbicidal Effect Test by Application to Foliage After alluvial soil was placed into 1/10000 are of Wagner pot, water was poured and mixed to form a condition having a water depth of 0.1 cm to 0.5 cm. Seeds of Echinochloa crus-galli var. crus-galli, Leptochloa chinensis, Cyperus difformis, and Oryza sativa were sowed and the pot was placed in the greenhouse of 25° C. to 30° C. to grow the plants. After the plants were grown for 14 days, the emulsion agent containing the compound of the present invention prepared in accordance with Formulation Example 2 was diluted with water so as to be a predetermined herbicide amount and the diluted compound was uniformly applied to a stem and leaf part with a small-size spray. Three weeks after the herbicide application, effects on each plant were investigated in accordance with the criteria of Test Example 1. A: Echinochloa oryzicola Vasing., B: Scirpus juncoides, C: Monochoria vaginalis, D: Leptochloa chinensis, E: Cyperus difformis, F: Digitaria ciliaris, G: Setaria viridis, H: Echinochloa crus-galli var. crus-galli, I: Avena fatua, J: Alopecurus myosuroides, K: Lolium multiflorum Lam., L: Apera spica-venti., M: Abutilon theophrasti, N: Amaranthus retroflexus, O: Chenopodium album, P: Stellaria media, Q: Galium spurium, R: Veronica persica, a: transplanted Oryza sativa, b: directly sowed Oryza sativa, c: Zea mays, d: Glycine max, e: Triticum aestivum, f: Beta vulgaris ssp. vulgaris, and g: Brassica campestris L. The application herbicide amount (g/ha) means an amount that a concentration is adjusted so that, when an application amount is converted into per hectare (1 ha), the herbicide is applied by the number of grams (g) of the described value.

[2] = tested on: Echinochloa crus-galli var. crus-galli; experiment: as above; conditions: Nineteenth Table; application to foliage; application herbicide amount 320 g/ha
Source text: as §2

Cyperus difformis = experiment: as above; conditions: Nineteenth Table; application to foliage; application herbicide amount 320 g/ha
Source text: as §2

[3] = tested on: directly sowed Oryza sativa; experiment: Test Example 3: effect on crop by application to foliage (Wagner pot, water depth 0.1-0.5 cm); conditions: Nineteenth Table; application to foliage; application herbicide amount 320 g/ha
Source text: as §2

[4] = tested on: directly sowed Oryza sativa; experiment: Test Example 4: effect on crop by application to foliage (diluvial soil, plastic box); conditions: Application herbicide amount 320 g/ha; effect on crop
Source text: as §1

[5] = tested on: Beta vulgaris ssp. vulgaris; experiment: as above; conditions: Application herbicide amount 320 g/ha; effect on crop
Source text: as §1

Zea mays = experiment: as above; conditions: Application herbicide amount 320 g/ha; effect on crop
Source text: as §1

Glycine max = experiment: as above; conditions: Application herbicide amount 320 g/ha; effect on crop
Source text: as §1

Triticum aestivum = experiment: as above; conditions: Application herbicide amount 320 g/ha; effect on crop
Source text: as §1

Brassica campestris L. = experiment: as above; conditions: Application herbicide amount 320 g/ha; effect on crop
Source text: as §1

Compound: CON=Cc1nnc2c(C(=O)Nc3nnc(C)o3)ccc(C(F)(F)F)n12 [1-072]
- J (Alopecurus myosuroides): 0 (Herbicidal ratio of 5% or less (almost no effect))
- G (Setaria viridis): 0 (Herbicidal ratio of 5% or less (almost no effect))
- Q (Galium spurium): 0 (Herbicidal ratio of 5% or less (almost no effect))
- K (Lolium multiflorum Lam.): 0 (Herbicidal ratio of 5% or less (almost no effect))
- M (Abutilon theophrasti): 1 (Herbicidal ratio of 5% or more and less than 20%)
- O (Chenopodium album): 4 (Herbicidal ratio of 70% or more and less than 90%)
- I (Avena fatua): 0 (Herbicidal ratio of 5% or less (almost no effect))
- H [1]: 3 (Herbicidal ratio of 40% or more and less than 70%)
- L (Apera spica-venti.): 0 (Herbicidal ratio of 5% or less (almost no effect))
- F (Digitaria ciliaris): 0 (Herbicidal ratio of 5% or less (almost no effect))
- R (Veronica persica): 1 (Herbicidal ratio of 5% or more and less than 20%)
- D (herbicidal effect grade) (Leptochloa chinensis): 1 (Herbicidal ratio of 5% or more and less than 20%)
- H (herbicidal effect grade) [2]: 2 (Herbicidal ratio of 20% or more and less than 40%)
- E (herbicidal effect grade) (Cyperus difformis): 0 (Herbicidal ratio of 5% or less (almost no effect))
- b (effect on crop grade) [3]: 0 (Herbicidal ratio of 5% or less (almost no effect))
- d [4]: 0 (Herbicidal ratio of 5% or less (almost no effect))
- f [5]: 0 (Herbicidal ratio of 5% or less (almost no effect))
- b (Zea mays): 0 (Herbicidal ratio of 5% or less (almost no effect))
- c (Glycine max): 0 (Herbicidal ratio of 5% or less (almost no effect))
- e (Triticum aestivum): 0 (Herbicidal ratio of 5% or less (almost no effect))
- g (Brassica campestris L.): 0 (Herbicidal ratio of 5% or less (almost no effect))

Compound: Cc1nnc(NC(=O)c2ccc(-c3ccccc3)n3c(C(C)C)nnc23)o1 [1-081]
- J (Alopecurus myosuroides): 0 (Herbicidal ratio of 5% or less (almost no effect))
- G (Setaria viridis): 0 (Herbicidal ratio of 5% or less (almost no effect))
- K (Lolium multiflorum Lam.): 0 (Herbicidal ratio of 5% or less (almost no effect))
- M (Abutilon theophrasti): 0 (Herbicidal ratio of 5% or less (almost no effect))
- O (Chenopodium album): 4 (Herbicidal ratio of 70% or more and less than 90%)
- I (Avena fatua): 0 (Herbicidal ratio of 5% or less (almost no effect))
- H [1]: 0 (Herbicidal ratio of 5% or less (almost no effect))
- L (Apera spica-venti.): 0 (Herbicidal ratio of 5% or less (almost no effect))
- F (Digitaria ciliaris): 0 (Herbicidal ratio of 5% or less (almost no effect))
- R (Veronica persica): 0 (Herbicidal ratio of 5% or less (almost no effect))
- D (herbicidal effect grade) (Leptochloa chinensis): 0 (Herbicidal ratio of 5% or less (almost no effect))
- H (herbicidal effect grade) [2]: 2 (Herbicidal ratio of 20% or more and less than 40%)
- E (herbicidal effect grade) (Cyperus difformis): 0 (Herbicidal ratio of 5% or less (almost no effect))
- b (effect on crop grade) [3]: 0 (Herbicidal ratio of 5% or less (almost no effect))
- d [4]: 0 (Herbicidal ratio of 5% or less (almost no effect))
- f [5]: 1 (Herbicidal ratio of 5% or more and less than 20%)
- b (Zea mays): 0 (Herbicidal ratio of 5% or less (almost no effect))
- c (Glycine max): 0 (Herbicidal ratio of 5% or less (almost no effect))
- e (Triticum aestivum): 0 (Herbicidal ratio of 5% or less (almost no effect))
- g (Brassica campestris L.): 0 (Herbicidal ratio of 5% or less (almost no effect))

Compound: Cc1nnc(NC(=O)c2ccc(-c3cc(F)cc(F)c3)n3c(C(C)C)nnc23)o1 [1-088]
- J (Alopecurus myosuroides): 0 (Herbicidal ratio of 5% or less (almost no effect))
- G (Setaria viridis): 0 (Herbicidal ratio of 5% or less (almost no effect))
- Q (Galium spurium): 0 (Herbicidal ratio of 5% or less (almost no effect))
- K (Lolium multiflorum Lam.): 0 (Herbicidal ratio of 5% or less (almost no effect))
- M (Abutilon theophrasti): 0 (Herbicidal ratio of 5% or less (almost no effect))
- O (Chenopodium album): 2 (Herbicidal ratio of 20% or more and less than 40%)
- I (Avena fatua): 0 (Herbicidal ratio of 5% or less (almost no effect))
- H [1]: 0 (Herbicidal ratio of 5% or less (almost no effect))
- L (Apera spica-venti.): 0 (Herbicidal ratio of 5% or less (almost no effect))
- F (Digitaria ciliaris): 0 (Herbicidal ratio of 5% or less (almost no effect))
- R (Veronica persica): 0 (Herbicidal ratio of 5% or less (almost no effect))
- d [4]: 0 (Herbicidal ratio of 5% or less (almost no effect))
- f [5]: 0 (Herbicidal ratio of 5% or less (almost no effect))
- b (Zea mays): 0 (Herbicidal ratio of 5% or less (almost no effect))
- c (Glycine max): 0 (Herbicidal ratio of 5% or less (almost no effect))
- e (Triticum aestivum): 0 (Herbicidal ratio of 5% or less (almost no effect))
- g (Brassica campestris L.): 0 (Herbicidal ratio of 5% or less (almost no effect))

Compound: CC(C)c1nnc2c(C(=O)Nc3nnc(-c4ccccn4)o3)ccc(C(F)(F)F)n12 [1-101]
- D (herbicidal effect grade) (Leptochloa chinensis): 0 (Herbicidal ratio of 5% or less (almost no effect))
- H (herbicidal effect grade) [2]: 1 (Herbicidal ratio of 5% or more and less than 20%)
- E (herbicidal effect grade) (Cyperus difformis): 0 (Herbicidal ratio of 5% or less (almost no effect))
- b (effect on crop grade) [3]: 0 (Herbicidal ratio of 5% or less (almost no effect))

Compound: Cc1nnc(NC(=O)c2ccc(C(F)(F)F)n3c(C(C)C)nnc23)n1C [5-001]
- D (herbicidal effect grade) (Leptochloa chinensis): 0 (Herbicidal ratio of 5% or less (almost no effect))
- H (herbicidal effect grade) [2]: 1 (Herbicidal ratio of 5% or more and less than 20%)
- E (herbicidal effect grade) (Cyperus difformis): 0 (Herbicidal ratio of 5% or less (almost no effect))
- b (effect on crop grade) [3]: 0 (Herbicidal ratio of 5% or less (almost no effect))
